# Results reported in patent US5571685A (priority 1992, dated 1996).
# Where two headings read alike, the source gives them in different places.
# Assays:
# [1] = biological target: T1, morphinone reductase (Pseudomonas putida, UniProt Q51990); conditions: for Enzyme activity in the reverse direction: reverse reaction; for Enzyme activity against compound as substrate: forward (reduction) direction, with NADH
# [2] = biological target: T1, morphinone reductase; test: biochemical; set-up: initiator Met absent; species or system Pseudomonas putida M10; conditions: for Inhibition of enzyme (in words): pre-incubation with purified enzyme; for remaining activity at 500 µM / remaining activity at 1000 µM: read-out: Activity as percentage of control activity; for remaining activity at 1000 µM: 1 mM
# Description: Assays were carried out at 30° C.
# Purified enzyme was incubated with the following possible inhibitors: copper sulphate, the thiol-blocking agent p-hydroxymercuribenzoate (pHMB), the thiol-reducing agent dithiothreitol (DTT) and the metal-complexing agents ethylenediaminetetraacetic acid (EDTA) and 8- hydroxyquinoline (8HQ). Incubation was in the standard assay mixture without codeinone or NADH, firstly for 30 min at room temperature and secondly for 16 hours at 4° C. The enzyme concentration was approximately 3.3 μg/ml, 1/100 that of the purified enzyme stock.
# [3] = biological target: T1, morphinone reductase; test: Inhibition of the reaction with codeinone by compounds added to the standard assay mixture; format: biochemical, Pseudomonas putida M10; set-up: initiator Met absent; conditions: for Inhibition of the reaction with codeinone: added at 0.3 mM to the standard assay mixture
# Description: Enzyme activity was tested with a variety of substrates.
# [4] = tested on: COc1ccc2c3c1O[C@H]1C(=O)C=C[C@H]4[C@@H](C2)N(C)CC[C@]314; test: purified protein, by the assay type; conditions: 30.0 °C
# [5] = tested on: COc1ccc2c3c1O[C@H]1C(=O)CC=C4[C@@H](C2)N(C)CC[C@]431; test: purified protein, by the assay type; conditions: 30.0 °C
# [6] = tested on: NC(=O)C1=CN([C@@H]2O[C@H](COP(=O)(O)OP(=O)(O)OC[C@H]3O[C@@H](n4cnc5c(N)ncnc54)[C@H](O)[C@@H]3O)[C@@H](O)[C@H]2O)C=CC1; test: purified protein, by the assay type; conditions: 30.0 °C
# [7] = biological target: T2, deflavo-morphinone reductase (Pseudomonas putida, UniProt Q51990); test: Reconstitution of deflavo-morphinone reductase by incubation with flavins; format: biochemical, Pseudomonas putida M10
# T2 construct: FMN removed by ammonium sulphate (apoenzyme); initiator Met absent
# Description: Flavin was dissociated from morphinone reductase by boiling for 3 minutes and removal of denatured protein by ultrafiltration. […] Thin layer chromatography (TLC) of flavins was performed on silica plates using solvent systems 2 and 4 of Fazekas and Kokai (Met. Enzymol. (1971) 18B:385-398), viz. 12:3:5 n-butanol:acetic acid:water and 2% disodium hydrogen phosphate in water. Flayins on TLC plates were visualised by their yellow fluorescence when illuminated by ultraviolet light at 366 nm. Luciferase assay of flavins was performed using the commercially-availablepreparation of Vibrio harveyii luciferase of Sigma. The reaction mixture contained 0.1 mg/ml luciferase preparation, 0.1 mg/ml bovine serum albumin, 0.2 mM n-decanal, 0.5 mM NADH and 1.5mM dithiothreitol. Assays were carried out at 24° C. and light emission was measured using a BioOrbit 1250 Luminometer (Labsystems (UK) Ltd., Basingstoke, U.K.). Deflavomorphinone reductase was prepared by ammonium sulphate treatment, as described by Husain and Massey (1978) Met. Enzymol. 53:429-437.
# The liberated flavin comigrated with flavin mononucleotide (FMN) and not with flavin adenine dinucleotide (FAD) or riboflavin in two thin layer chromatography systems. The liberated flavin gave a positive result in the luciferase assay which is highly specific for FMN (Chappelle and Picciolo, Met. Enzymol (1971) 18B:381-385). […]
# [8] = biological target: T1, morphinone reductase; test: Coupled enzyme system (morphine dehydrogenase then morphinone reductase), HPLC analysis; format: biochemical, Pseudomonas putida M10; set-up: initiator Met absent
# Description: Reverse-phase HPLC analysis was performed on a Waters component system (Millipore Waters U.K. Limited, Watford) consisting of a model 510 pump, a model 712 WISP autoinjector and a Waters 994 programmable photodiode array detector set to 235 nm and 280 nm, 0-1 V fsd. Separation of samples (50 μl ) was achieved on a 5 μm C18 Spherisorb ODS column (4.6×250mm) (Anachem limited, Luton) with an isocratic solvent system, delivered at a flow rate of 1 ml/min. The mobile phase consisted of filter-sterilised 15 mM KH2 PO4 (adjusted to pH 3.5 with 1 M H3 PO4) in 30% (v/v) HPLC grade acetonitrile (degassed for 40 min prior to use). Integrations were performed using Maxima 820 software and UV absorbance scans of resultant peaks were measured between 190 and 350 nm using the programmable photodiode array detector.
# At regular intervals, 1 ml samples were removed and the reaction stopped by the addition of 2 μl glacial acetic acid (HPLC grade). The precipitated protein was subsequently pelleted at 13,000 rpm in an MSE microfuge.
molecule,measurement,setting,value
NC(=O)C1=CN([C@@H]2O[C@H](COP(=O)(O)OP(=O)(O)OC[C@H]3O[C@@H](n4cnc5c(N)ncnc54)[C@H](OP(=O)(O)O)[C@@H]3O)[C@@H](O)[C@H]2O)C=CC1 [NADPH],Enzyme activity with alternative cofactor,[1]; NADPH replaced NADH,No activity
COc1ccc2c3c1O[C@H]1C(=O)CC[C@H]4[C@@H](C2)N(C)CC[C@]314 [hydrocodone],Enzyme activity in the reverse direction,[1],No activity in the reverse direction
"O=C(O)c1cc[c]([Hg+])cc1.[OH-] [pHMB, p-hydroxymercuribenzoate]",Activity as percentage of control activity,"[2]; 0.01 mM, 30 min 20°C.",37%
same,Activity as percentage of control activity,"[2]; 0.01 mM, 16 h 4°C.",19%
same,Activity as percentage of control activity,"[2]; 0.02 mM, 30 min 20°C.",0%
same,Inhibition of enzyme (in words),[2],highly inhibitory
"O=S(=O)([O-])[O-].[Cu+2] [CuSO4, copper sulphate]",Activity as percentage of control activity,"[2]; 0.01 Mm, 30 min 20°C.",0%
same,Inhibition of enzyme (in words),[2],highly inhibitory
"O=C(O)CN(CCN(CC(=O)O)CC(=O)O)CC(=O)O [EDTA, ethylenediaminetetraacetic acid]",remaining activity at 500 µM,[2]; 0.5 h,100%
same,remaining activity at 500 µM,[2]; 16 h,97%
CN1CC[C@]23c4c5ccc(O)c4O[C@H]2C(=O)CC[C@@]3(O)[C@H]1C5 [oxymorphone],Enzyme activity in the reverse direction,[1],No reverse reaction
COc1ccc2c3c1O[C@H]1C(=O)CC[C@@]4(O)[C@@H](C2)N(C)CC[C@]314 [oxycodone],Enzyme activity in the reverse direction,[1],No reverse reaction
"Oc1cccc2cccnc12 [8HQ, 8-hydroxyquinoline]",Activity as percentage of control activity,"[2]; morphinone reductase, 30 min, 50 µM",94
same,Activity as percentage of control activity,"[2]; morphinone reductase, 960 min, 50 µM",91
C[C@]12CCC(=O)C=C1CC[C@@H]1[C@@H]2C(=O)C[C@@]2(C)[C@H]1CC[C@]2(O)C(=O)CO [cortisone],Enzyme activity against compound as substrate,[1],No activity
same,Inhibition of the reaction with codeinone,[3],inhibit greatly
O=C1C=CCCC1 [2-cyclohexen-1-one],Enzyme activity against compound as substrate,[1],Very slight activity
same,Inhibition of activity against codeinone,[3]; added to the standard assay at 1 mM,inhibited the reaction with codeinone
"COc1ccc2c3c1O[C@H]1C(=O)CC=C4[C@@H](C2)N(C)CC[C@]431 [Neopinone, neopinone]",Enzyme activity against compound as substrate,[1],Activity was detected
COc1ccc2c3c1O[C@H]1[C@@H](O)C=C[C@H]4[C@@H](C2)N(C)CC[C@@]341 [codeine],Enzyme activity against compound as substrate,[1],No activity
COc1ccc2c3c1O[C@H]1[C@H](O)C=C[C@H]4[C@@H](C2)N(C)CC[C@@]341 [isocodeine],Enzyme activity against compound as substrate,[1],No activity
"O[C@H](CS)[C@H](O)CS (racemic) [DTT, dithiothreitol]",remaining activity at 1000 µM,[2]; 16 h 4°C.,94%
same,remaining activity at 1000 µM,"[2]; 0.5 h, 30 min 20°C.",94%
COc1ccc2c3c1O[C@H]1[C@@H](O)CC[C@H]4[C@@H](C2)N(C)CC[C@@]341 [dihydrocodeine],Enzyme activity in the reverse direction,[1],No reverse reaction
morphinone reductase (Pseudomonas putida),Km,[4],250 µM
same,Vmax,[4],32.0 U/mg
same,kcat,[4],44.4 s⁻¹
same,kcat/Km,[4],178000 M⁻¹ s⁻¹
same,Km,[5],430 µM
same,Vmax,[5],16.6 U/mg
same,kcat,[5],23.0 s⁻¹
same,kcat/Km,[5],53500 M⁻¹ s⁻¹
same,Km,[6],50 µM
"COc1ccc2c3c1O[C@H]1C(=O)C=C[C@H]4[C@@H](C2)N(C)CC[C@]314 [Codeinone, codeinone]",Enzyme activity against compound as substrate,[1],Activity was detected
"Cc1cc2nc3c(=O)[nH]c(=O)nc-3n(C[C@H](O)[C@H](O)[C@H](O)COP(=O)(O)OP(=O)(O)OC[C@H]3O[C@@H](n4cnc5c(N)ncnc54)[C@H](O)[C@@H]3O)c2cc1C [FAD, flavin adenine dinucleotide]",Restoration of enzyme activity after incubation with flavin (in words),[7],did not cause restoration
CN1CC[C@]23c4c5ccc(O)c4O[C@H]2C(=O)C=C[C@H]3[C@H]1C5 [morphinone],Enzyme activity against compound as substrate,[8],Activity against morphinone was demonstrated
CC(=O)[C@H]1CC[C@H]2[C@@H]3CCC4=CC(=O)CC[C@]4(C)[C@H]3CC[C@]12C [progesterone],Enzyme activity against compound as substrate,[1],No activity
same,Inhibition of the reaction with codeinone,[3],inhibit greatly
